Laboratory results: PubChem BioAssay (NCI)
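All cell lines were grown in 96-well plates and treated with compound for 48 hours. GI50 is the concentration that inhibits growth by half. The concentration for full growth arrest is given as TGI.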

Assays:
Assay in all cases: DTP human tumour cell line panel, 48 h
OVCAR-8 ovarian = tested on: OVCAR-8 ovarian
SNB-75 CNS = tested on: SNB-75 CNS
RPMI-8226 leukemia = tested on: RPMI-8226 leukemia
UACC-257 melanoma = tested on: UACC-257 melanoma
SNB-19 CNS = tested on: SNB-19 CNS
SK-MEL-2 melanoma = tested on: SK-MEL-2 melanoma
786-0 renal = tested on: 786-0 renal
UO-31 renal = tested on: UO-31 renal
SN12C renal = tested on: SN12C renal
HCT-15 colon = tested on: HCT-15 colon
HCC-2998 colon = tested on: HCC-2998 colon
NCI-H522 lung = tested on: NCI-H522 lung
HCT-116 colon = tested on: HCT-116 colon
UACC-62 melanoma = tested on: UACC-62 melanoma
COLO 205 colon = tested on: COLO 205 colon
NCI/ADR-RES ovarian = tested on: NCI/ADR-RES ovarian
HT29 colon = tested on: HT29 colon
OVCAR-3 ovarian = tested on: OVCAR-3 ovarian
DU-145 prostate = tested on: DU-145 prostate
OVCAR-5 ovarian = tested on: OVCAR-5 ovarian
CAKI-1 renal = tested on: CAKI-1 renal
HL-60(TB) leukemia = tested on: HL-60(TB) leukemia
SK-MEL-5 melanoma = tested on: SK-MEL-5 melanoma
NCI-H23 lung = tested on: NCI-H23 lung
EKVX NSCLC = tested on: EKVX NSCLC
KM12 colon = tested on: KM12 colon
MDA-MB-231 breast = tested on: MDA-MB-231 breast
SR leukemia = tested on: SR leukemia
BT-549 breast = tested on: BT-549 breast
NCI-H460 lung = tested on: NCI-H460 lung
OVCAR-4 ovarian = tested on: OVCAR-4 ovarian
A549 NSCLC = tested on: A549 NSCLC
ACHN renal = tested on: ACHN renal
MALME-3M melanoma = tested on: MALME-3M melanoma
SF-539 CNS = tested on: SF-539 CNS
IGROV1 ovarian = tested on: IGROV1 ovarian
TK-10 renal = tested on: TK-10 renal
SF-268 CNS = tested on: SF-268 CNS
MDA-MB-435 = tested on: MDA-MB-435
MOLT-4 leukemia = tested on: MOLT-4 leukemia
SK-OV-3 ovarian = tested on: SK-OV-3 ovarian
MCF7 breast = tested on: MCF7 breast
U251 CNS = tested on: U251 CNS
M14 melanoma = tested on: M14 melanoma
HOP-62 NSCLC = tested on: HOP-62 NSCLC
SF-295 CNS = tested on: SF-295 CNS
NCI-H226 lung = tested on: NCI-H226 lung
LOX IMVI melanoma = tested on: LOX IMVI melanoma
CCRF-CEM leukemia = tested on: CCRF-CEM leukemia
T-47D breast = tested on: T-47D breast
K-562 leukemia = tested on: K-562 leukemia
PC-3 prostate = tested on: PC-3 prostate

Molecule `COc1cc(C(=O)/C=C/c2c(-c3cccs3)nc3sccn23)cc(OC)c1OC` has a GI50 (OVCAR-8 ovarian) of 651 nM, a TGI (OVCAR-8 ovarian) of 3700 nM and a GI50 (SNB-75 CNS) of 1280 nM. For the same molecule, the TGI (SNB-75 CNS) was 8160 nM, the GI50 (RPMI-8226 leukemia) was 448 nM and the TGI (RPMI-8226 leukemia) was 3680 nM. It also gave a GI50 (UACC-257 melanoma) of 1140 nM, a TGI (UACC-257 melanoma) of 3710 nM and a GI50 (SNB-19 CNS) of 2140 nM. It also gave a TGI (SNB-19 CNS) of 13500 nM, a GI50 (SK-MEL-2 melanoma) of 319 nM and a TGI (SK-MEL-2 melanoma) of 1280 nM. It also gave a GI50 (786-0 renal) of 1530 nM, a TGI (786-0 renal) of 5940 nM and a GI50 (UO-31 renal) of 784 nM. The TGI (UO-31 renal) was 4700 nM, the GI50 (SN12C renal) was 1920 nM and the TGI (SN12C renal) was 10800 nM. For the same molecule, the GI50 (HCT-15 colon) was 839 nM, the TGI (HCT-15 colon) was 3850 nM and the GI50 (HCC-2998 colon) was 814 nM. It also gave a TGI (HCC-2998 colon) of 2000 nM, a GI50 (NCI-H522 lung) of 260 nM and a TGI (NCI-H522 lung) of 866 nM. It also gave a GI50 (HCT-116 colon) of 1090 nM, a TGI (HCT-116 colon) of 3990 nM and a GI50 (UACC-62 melanoma) of 1380 nM. It also gave a TGI (UACC-62 melanoma) of 3720 nM, a GI50 (COLO 205 colon) of 1650 nM and a TGI (COLO 205 colon) of 3320 nM. It also gave a GI50 (NCI/ADR-RES ovarian) of 464 nM, a TGI (NCI/ADR-RES ovarian) of 4060 nM and a GI50 (HT29 colon) of 1120 nM. For the same molecule, the TGI (HT29 colon) was 3960 nM, the GI50 (OVCAR-3 ovarian) was 1010 nM and the TGI (OVCAR-3 ovarian) was 2730 nM. For the same molecule, the GI50 (DU-145 prostate) was 518 nM, the TGI (DU-145 prostate) was 1890 nM and the GI50 (OVCAR-5 ovarian) was 4740 nM. For the same molecule, the TGI (OVCAR-5 ovarian) was 27800 nM, the GI50 (CAKI-1 renal) was 1790 nM and the TGI (CAKI-1 renal) was 17000 nM. It also gave a GI50 (HL-60(TB) leukemia) of 1190 nM, a TGI (HL-60(TB) leukemia) of 4460 nM and a GI50 (SK-MEL-5 melanoma) of 1060 nM. For the same molecule, the TGI (SK-MEL-5 melanoma) was 2490 nM, the GI50 (NCI-H23 lung) was 814 nM and the TGI (NCI-H23 lung) was 6420 nM. It also gave a GI50 (EKVX NSCLC) of 2410 nM, a TGI (EKVX NSCLC) of over 100000 nM and a GI50 (KM12 colon) of 342 nM. The TGI (KM12 colon) was 1090 nM, the GI50 (MDA-MB-231 breast) was 1550 nM and the TGI (MDA-MB-231 breast) was 9270 nM. It also gave a GI50 (SR leukemia) of 264 nM, a TGI (SR leukemia) of 2470 nM and a GI50 (BT-549 breast) of 1790 nM. It also gave a TGI (BT-549 breast) of 11400 nM, a GI50 (NCI-H460 lung) of 600 nM and a TGI (NCI-H460 lung) of 1990 nM. The GI50 (OVCAR-4 ovarian) was 1970 nM, the TGI (OVCAR-4 ovarian) was 53200 nM and the GI50 (A549 NSCLC) was 1580 nM. It also gave a TGI (A549 NSCLC) of 5300 nM, a GI50 (ACHN renal) of 2160 nM and a TGI (ACHN renal) of 7520 nM. For the same molecule, the GI50 (MALME-3M melanoma) was 3280 nM, the TGI (MALME-3M melanoma) was 43400 nM and the GI50 (SF-539 CNS) was 1740 nM. It also gave a TGI (SF-539 CNS) of 4260 nM, a GI50 (IGROV1 ovarian) of 462 nM and a TGI (IGROV1 ovarian) of 1370 nM. For the same molecule, the GI50 (TK-10 renal) was 2080 nM, the TGI (TK-10 renal) was over 100000 nM and the GI50 (SF-268 CNS) was 1320 nM. For the same molecule, the TGI (SF-268 CNS) was 6300 nM, the GI50 (MDA-MB-435) was 592 nM and the TGI (MDA-MB-435) was 60100 nM. For the same molecule, the GI50 (MOLT-4 leukemia) was 1020 nM, the TGI (MOLT-4 leukemia) was 4450 nM and the GI50 (SK-OV-3 ovarian) was 2150 nM. It also gave a TGI (SK-OV-3 ovarian) of 6150 nM, a GI50 (MCF7 breast) of 724 nM and a TGI (MCF7 breast) of 88400 nM. The GI50 (U251 CNS) was 904 nM, the TGI (U251 CNS) was 5340 nM and the GI50 (M14 melanoma) was 2510 nM. The TGI (M14 melanoma) was 27200 nM, the GI50 (HOP-62 NSCLC) was 2410 nM and the TGI (HOP-62 NSCLC) was 6440 nM. It also gave a GI50 (SF-295 CNS) of 955 nM, a TGI (SF-295 CNS) of 9940 nM and a GI50 (NCI-H226 lung) of 2460 nM. The TGI (NCI-H226 lung) was 7460 nM, the GI50 (LOX IMVI melanoma) was 1060 nM and the TGI (LOX IMVI melanoma) was 2500 nM. For the same molecule, the GI50 (CCRF-CEM leukemia) was 565 nM, the TGI (CCRF-CEM leukemia) was over 100000 nM and the GI50 (T-47D breast) was 789 nM. It also gave a TGI (T-47D breast) of 4710 nM, a GI50 (K-562 leukemia) of 445 nM and a TGI (K-562 leukemia) of over 100000 nM. For the same molecule, the GI50 (PC-3 prostate) was 731 nM and the TGI (PC-3 prostate) was 6170 nM.
